The test system of assay [1] is NLRP3 inflammasome, IL-1β release in human PBMCs. The assay can be described thus: PBMC in vitro assay (LPS priming, nigericin, secreted IL-1β). The class given is cell-based. As to the method: Cryopreserved human PBMCs (iXCells Biotechnologies, San Diego, CA) were rapidly thawed and incubated overnight at 37 °C with 5% CO2 in Complete Media: RPMI 1640 medium (ATCC modification, Thermo Fisher Scientific) supplemented with 10% Fetal bovine serum (FBS, Thermo Fisher Scientific) and 1% Penicillin-Streptomycin (Thermo Fisher Scientific). The next day, cells were centrifuged (300 × g, 5 min), resuspended in Assay Media (Complete Media without FBS) and plated at 33,333 cells/well in a 96-well cell culture plate. PBMCs were then primed with 100 ng/ml LPS (E. coli O26:B6) for 4 h. Following LPS priming, PBMCs were incubated with VEN-02XX pre-diluted in assay media with 0.8% DMSO, for 30 min (top concentration 100 µM; 4-fold titration). Following drug incubation, PBMCs were stimulated with 10 µM Nigericin (Millipore-Sigma, Burlington, MA) for an additional 60 min, after which conditioned media was collected for analysis of secreted IL-1β in an electrochemiluminescence immunoassay (Mesoscale Discovery).

Assay [2] concerns NLRP3 inflammasome, IL-1β in iPSC-derived microglia. The assay can be described thus: iPSC-derived microglia in vitro assay, secreted IL-1β. In kind it is cell-based. The following applies: for IC50: Microglia, geometric mean, n = 5. As to the method: iPSC-derived microglia (BX-0900, BrainXell, Madison, WI) were thawed and recovered as per the supplier’s instructions. Briefly, viable cells were counted post-thaw using Trypan Blue, 0.4% (Thermo Fisher Scientific) and 25,000 cells were seeded on poly-d-lysine coated 96-well plates in DMEM-F/12 medium (Thermo Fisher Scientific) supplemented with 1X B-27 supplement (Thermo Fisher Scientific), 1X N-2 supplement (Thermo Fisher Scientific), 1X Non-essential amino acids (Thermo Fisher Scientific), 1X Chemically defined lipid mix (Thermo Fisher Scientific), 1 mM GlutaMax (Thermo Fisher Scientific), 0.2 mM Ascorbic Acid (Millipore), 100 ng/mL IL-34 (PeproTech, Cranbury, NJ), 2 ng/mL TGF-β1 (PeproTech) and 20 ng/mL M-CSF (PeproTech). Fresh media was added 3 days after seeding, half of which was replenished with fresh media 6 days following seeding. The assay was performed 7 days after cells were seeded in 96-well plates. Two assay protocol variations were performed: cells were either pre-treated with VEN-02XX to block NLRP3 inflammasome formation and then primed with LPS (Fig. 1, D. Compound added before LPS priming) or were primed with LPS and then treated with VEN-02XX (Fig. 1, D. Compound added after LPS priming). For compound treatment, cells were treated with VEN-02XX for 1 h (top concentration 100 µM; 3-fold titration) to block NLRP3 inflammasome formation. For LPS priming, cells were primed with 100 ng/mL LPS (E.coli O26:B6, Millipore) for 4 h. At the end of either protocol, cells were stimulated with 10 uM Nigericin (Millipore) for 1 h, after which conditioned media was collected for analysis of secreted IL-1β, IL-18 and TNFα in an electrochemiluminescence immunoassay (Mesoscale Discovery).

The test system of a further assay is AIM2. Kind of assay: AIM2 in vitro selectivity assay (THP1-KO-NLRP3 cells, Poly(dA:dT), IL-1β). The class given is cell-based. Conditions: n = 2; top concentration 50 µM. As to the method:
THP1-KO-NLRP3 cells (Invivogen, San Diego, CA), resuspended in RPMI 1640 (Thermo Fisher Scientific) supplemented with 25 mM HEPES (Thermo Fisher Scientific), 10% FBS (Thermo Fisher Scientific) and 1% Penicillin-Streptomycin (Thermo Fisher Scientific), were seeded at 75,000 cells/well in a 96-well cell culture plate and treated with 50 ng/ml Phorbol 12-myristate 13-acetate (PMA, Millipore) for 24 h at 37 °C with 5% CO2. The next day, the media was replaced with fresh media containing 2.2% FBS, and cells were pretreated for 60 min with VEN-02XX (top concentration 50 µM; 5-fold titration) before DNA transfection. Lipofectamine 2000 (Thermo Fisher Scientific), for a final concentration of 2 µg/ml, and Poly(dA:dT) (Invivogen), for a final concentration of 1 µg/ml, were mixed together in OptiMEM (Thermo Fisher Scientific) 5 min before their addition to the cells. After a 24-h incubation at 37 °C with 5% CO2, supernatants were collected and IL-1β levels determined in an electrochemiluminescence immunoassay (Mesoscale Discovery).

The next assay relates to 5XFAD/Rubicon KO mice. Kind of assay: Brain immunohistochemistry (Iba1, Aβ, pTau S396, NeuN) in 5XFAD/Rubicon KO mice. In kind it is in vivo, mouse. The following applies: 9 weeks PO QD. As to the method:
5XFAD/Rubicon KO mice received vehicle (0.5% w/v methylcellulose/0.1% w/v Tween® 80 in water) or VEN-02XX (0.01, 1, or 20 mg/kg) every day by oral gastric gavage for 9 weeks.
Following post-mortem collection, the brain was placed in a mouse brain matrix and sliced along the sagittal suture to separate the hemispheres. The left hemisphere was immediately processed for downstream biochemical analyses by snap freezing in liquid nitrogen. The right half was drop-fixed in 4% PFA in PBS for 24 h and then washed 5x in fresh PBS before being submerged in 30% sucrose cryoprotectant solution for 24 h. After 24 h, brains were frozen in cryomolds in a 2:1 mixture of 30% sucrose and optimal cutting temperature compound (OCT), cryomolds were stored at −80 °C until use. For slide preparation, brains were allowed to acclimatize to −20 °C in a Thermo Shandon cryotome. After equilibration at −20 °C, tissue was cryostat sectioned at 25 μm (cortex) or 40 μm (free floating sections for hippocampus). Steam-mediated antigen retrieval was performed using 1x citrate buffer. Sections were rinsed in PBS, blocked in 3% bovine serum albumin/0.2% Triton X-100/PBS for 1 h, and incubated with primary antibodies in blocking buffer overnight at 4 °C (1:200 goat anti-Iba1 [Novus Biologicals, Centennial, CO], 1:500 mouse anti-Aβ 82E1 MOAB [Immuno-Biological Laboratories, Inc., Spring Lake Park, MN], 1:200 rabbit anti-pTau S396 [Cell Signaling, Danvers, MA], 1:200 mouse anti-NeuN [Cell Signaling]). Sections were incubated with appropriate secondary antibodies (Jackson ImmunoResearch, West Grove, PA) for 1 h at room temperature. For the complete list of antibodies please reference Supplementary Table 2. ProLong™ Diamond or ProLong™ Gold Antifade Mountant with or without 4’,6-diamidino-2-phenylindole (DAPI) counterstain (Thermo Fisher Scientific, Waltham, MA). Slides were imaged on a Zeiss Axio-observer A1 inverted microscope with an Andor iXon EMCCD camera and X-Cite LED fluorescence unit. Image analysis was performed using Fiji and 3DMorph AnalyzeSkeleton for microglial analyses.

Regarding `CC(C)(O)CNc1nnc(-c2ccc(Cl)cc2C(F)(F)F)c2ccncc12` [VEN-02XX], the IC50 in assay [1] (Homo sapiens, PBMC, geometric mean, n = 3, read-out: IL-1β inhibition (PBMCs) IC50) is 350 nM; in assay [2] (compound added after LPS priming) it was 250 nM; in assay [2] (compound added before LPS priming), 300 nM. In addition, the “potency of NLRP3 inhibition in PBMC” value in assay [1] (in words) is listed as “sub-micromolar potency”. Besides, in assay [2] (in words), the “potency of NLRP3 inhibition in iPSC-derived microglia” value was “sub-micromolar potency”. Also, in the assay with AIM2, the “block of IL-1β release downstream of AIM2” value is reported as “inability to block IL-1β release”. For the same molecule, the microglial branch length result in the assay on 5XFAD/Rubicon KO mice (20 mg/kg, 3DMorph) is listed as “significant increases in microglial branch length”. In the assay on 5XFAD/Rubicon KO mice (20 mg/kg, cortex and CA3 region of hippocampus), the “pTau S396 signal” value is listed as “almost complete suppression in pTau signal”. In the assay on 5XFAD/Rubicon KO mice, the “microglia/plaque association (co-localization of Iba1 with amyloid)” value is given as “robust disassociation of the microglia from the Aβ plaques”. Also, the microglial soma volume entry in the assay on 5XFAD/Rubicon KO mice (3DMorph) is “commensurate decreases in soma volume in a dose-dependent and statistically significant manner”. The gross microglial morphology entry in the assay with 5XFAD/Rubicon KO mice (Iba1 staining) is on record as “transition from the disease-associated active ameboid morphology towards a homeostatic ramified morphology”. The “CA3 and dentate gyrus thickness” value in the assay with 5XFAD/Rubicon KO mice (NeuN stained sections) was “significantly increased both CA3 and dentate gyrus (DG) thickness”. In the assay on 5XFAD/Rubicon KO mice (cortex and CA3 region of hippocampus), the “phosphorylated tau (pTau S396) mean area” value was “dose-dependent and statistically significant reduction in phosphorylated tau”. Further, the “Iba1 mean area (microglial activation)” value with 5XFAD/Rubicon KO mice (cortex and hippocampus) was “reduced the cumulative signal of the key microglial activation marker, Iba1, in both the cortex and hippocampus in a dose-dependent and statistically significant manner”. For the same molecule, the “NeuN+ cell count (neuronal numbers)” value in the assay on 5XFAD/Rubicon KO mice (cortex and hippocampus) was “robust dose-dependent and statistically significant neuroprotective effect”. For the same molecule, the Aβ plaque area/size result in the assay with 5XFAD/Rubicon KO mice (cortex and hippocampus, especially at higher doses) is “significant reduction in Aβ plaque area/size in both the cortex and hippocampus in a dose-dependent manner”. Besides, the “Aβ plaque burden (cumulative plaque #)” value in the assay with 5XFAD/Rubicon KO mice (cortex and hippocampus, did not reach statistical significance) was “trending reduction in Aβ plaque burden”.

In general, IC50 refers to the midpoint of a concentration-inhibition curve.
